Assay results taken from patent US10251395B2, “Substituted furano-/thienocycloalkylamino-2-pyrimidine derivatives and use thereof for controlling undesired plant growth” (Bayer CropScience Aktiengesellschaft, priority 2015, dated 2019).

Tests used:
Format in all cases: in vivo
Cyperus esculentus = test: Pre-emergence herbicidal effect; conditions: Dosage 320 g/ha, scored visually after 3 weeks
Procedure, shortened: (§1)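 Seeds in sandy loam were covered with soil and treated pre-emergence with WP or EC formulations applied as aqueous spray with 0.2% wetting agent. Percent damage was scored visually after 3 weeks relative to untreated controls.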

Viola tricolor [1] = test: Pre-emergence herbicidal effect; conditions: scored visually after 3 weeks
Procedure, shortened: as §1

Amaranthus retroflexus [2] = test: Pre-emergence herbicidal effect; conditions: scored visually after 3 weeks
Procedure, shortened: as §1

Matricaria inodora [3] = test: Pre-emergence herbicidal effect; conditions: scored visually after 3 weeks
Procedure, shortened: as §1

Echinochloa crus-galli [4] = test: Pre-emergence herbicidal effect; conditions: scored visually after 3 weeks
Procedure, shortened: as §1

Stellaria media [5] = test: Pre-emergence herbicidal effect; conditions: scored visually after 3 weeks
Procedure, shortened: as §1

Setaria viridis [6] = test: Pre-emergence herbicidal effect; conditions: scored visually after 3 weeks
Procedure, shortened: as §1

Abutilon theophrasti [7] = test: Pre-emergence herbicidal effect; conditions: Dosage 320 g/ha, scored visually after 3 weeks
Procedure, shortened: as §1

Alopecurus myosuroides [8] = test: Pre-emergence herbicidal effect; conditions: scored visually after 3 weeks
Procedure, shortened: as §1

Lolium multiflorum [9] = test: Pre-emergence herbicidal effect; conditions: scored visually after 3 weeks
Procedure, shortened: as §1

Polygonum convolvulus [10] = test: Pre-emergence herbicidal effect; conditions: scored visually after 3 weeks
Procedure, shortened: as §1

Avena fatua [11] = test: Pre-emergence herbicidal effect; conditions: Dosage 320 g/ha, scored visually after 3 weeks
Procedure, shortened: as §1

Veronica persica [12] = test: Pre-emergence herbicidal effect; conditions: scored visually after 3 weeks
Procedure, shortened: as §1

Ipomoea purpurea = test: Post-emergence herbicidal effect; conditions: assessed visually after about 3 weeks vs untreated controls
Procedure, shortened: (§2)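 Ratings are visual percentages taken around 3 weeks after treatment, compared with untreated plants. Treatment consisted of an aqueous spray of WP or EC formulations, with 0.2% wetting agent, onto one-leaf-stage weeds raised from seed in sandy loam.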

Viola tricolor [13] = test: Post-emergence herbicidal effect; conditions: assessed visually after about 3 weeks vs untreated controls
Procedure, shortened: as §2

Amaranthus retroflexus [14] = test: Post-emergence herbicidal effect; conditions: assessed visually after about 3 weeks vs untreated controls
Procedure, shortened: as §2

Matricaria inodora [15] = test: Post-emergence herbicidal effect; conditions: assessed visually after about 3 weeks vs untreated controls
Procedure, shortened: as §2

Echinochloa crus-galli [16] = test: Post-emergence herbicidal effect; conditions: assessed visually after about 3 weeks vs untreated controls
Procedure, shortened: as §2

Stellaria media [17] = test: Post-emergence herbicidal effect; conditions: assessed visually after about 3 weeks vs untreated controls
Procedure, shortened: as §2

Setaria viridis [18] = test: Post-emergence herbicidal effect; conditions: assessed visually after about 3 weeks vs untreated controls
Procedure, shortened: as §2

Abutilon theophrasti [19] = test: Post-emergence herbicidal effect; conditions: assessed visually after about 3 weeks vs untreated controls
Procedure, shortened: as §2

Alopecurus myosuroides [20] = test: Post-emergence herbicidal effect; conditions: 320 g/ha, assessed visually after about 3 weeks vs untreated controls
Procedure, shortened: as §2

Lolium multiflorum [21] = test: Post-emergence herbicidal effect; conditions: assessed visually after about 3 weeks vs untreated controls
Procedure, shortened: as §2

Polygonum convolvulus [22] = test: Post-emergence herbicidal effect; conditions: 320 g/ha, assessed visually after about 3 weeks vs untreated controls
Procedure, shortened: as §2

Avena fatua [23] = test: Post-emergence herbicidal effect; conditions: 320 g/ha, assessed visually after about 3 weeks vs untreated controls
Procedure, shortened: as §2

Veronica persica [24] = test: Post-emergence herbicidal effect; conditions: 320 g/ha, assessed visually after about 3 weeks vs untreated controls
Procedure, shortened: as §2

Cc1cc2c(s1)CCC[C@H]2Nc1ncc(I)c(N)n1 [compound 173]
90%: SETVI pre-emergence efficacy (herbicidal activity) (Setaria viridis [6]; Dosage 80 g/ha) | POLCO pre-emergence efficacy (herbicidal activity) (Polygonum convolvulus [10]; Dosage 80 g/ha) | VERPE pre-emergence efficacy (herbicidal activity) (Veronica persica [12]; Dosage 80 g/ha) | post-emergence efficacy PHBPU (Ipomoea purpurea; 80 g/ha) | post-emergence efficacy VIOTR (Viola tricolor [13]; 80 g/ha) | post-emergence efficacy VIOTR (Viola tricolor [13]; 320 g/ha) | post-emergence efficacy AMARE (Amaranthus retroflexus [14]; 80 g/ha) | post-emergence efficacy AMARE (Amaranthus retroflexus [14]; 320 g/ha) | post-emergence efficacy MATIN (Matricaria inodora [15]; 320 g/ha) | post-emergence efficacy SETVI (Setaria viridis [18]; 320 g/ha) | post-emergence efficacy ABUTH (Abutilon theophrasti [19]; 320 g/ha) | post-emergence efficacy LOLMU (Lolium multiflorum [21]; 320 g/ha) | post-emergence efficacy AVEFA (Avena fatua [23])
60%: CYPES pre-emergence efficacy (herbicidal activity) (Cyperus esculentus) | ALOMY pre-emergence efficacy (herbicidal activity) (Alopecurus myosuroides [8]; Dosage 80 g/ha) | LOLMU pre-emergence efficacy (herbicidal activity) (Lolium multiflorum [9]; Dosage 80 g/ha) | AVEFA pre-emergence efficacy (herbicidal activity) (Avena fatua [11]) | post-emergence efficacy MATIN (Matricaria inodora [15]; 80 g/ha) | post-emergence efficacy LOLMU (Lolium multiflorum [21]; 80 g/ha) | post-emergence efficacy POLCO (Polygonum convolvulus [22])
80%: ALOMY pre-emergence efficacy (herbicidal activity) (Alopecurus myosuroides [8]; Dosage 320 g/ha) | post-emergence efficacy SETVI (Setaria viridis [18]; 80 g/ha) | post-emergence efficacy ABUTH (Abutilon theophrasti [19]; 80 g/ha)
100%: VIOTR pre-emergence efficacy (herbicidal activity) (Viola tricolor [1]; Dosage 80 g/ha) | VIOTR pre-emergence efficacy (herbicidal activity) (Viola tricolor [1]; Dosage 320 g/ha) | AMARE pre-emergence efficacy (herbicidal activity) (Amaranthus retroflexus [2]; Dosage 80 g/ha) | AMARE pre-emergence efficacy (herbicidal activity) (Amaranthus retroflexus [2]; Dosage 320 g/ha) | MATIN pre-emergence efficacy (herbicidal activity) (Matricaria inodora [3]; Dosage 80 g/ha) | MATIN pre-emergence efficacy (herbicidal activity) (Matricaria inodora [3]; Dosage 320 g/ha) | ECHCG pre-emergence efficacy (herbicidal activity) (Echinochloa crus-galli [4]; Dosage 80 g/ha) | ECHCG pre-emergence efficacy (herbicidal activity) (Echinochloa crus-galli [4]; Dosage 320 g/ha) | STEME pre-emergence efficacy (herbicidal activity) (Stellaria media [5]; Dosage 80 g/ha) | STEME pre-emergence efficacy (herbicidal activity) (Stellaria media [5]; Dosage 320 g/ha) | SETVI pre-emergence efficacy (herbicidal activity) (Setaria viridis [6]; Dosage 320 g/ha) | ABUTH pre-emergence efficacy (herbicidal activity) (Abutilon theophrasti [7]) | LOLMU pre-emergence efficacy (herbicidal activity) (Lolium multiflorum [9]; Dosage 320 g/ha) | POLCO pre-emergence efficacy (herbicidal activity) (Polygonum convolvulus [10]; Dosage 320 g/ha) | VERPE pre-emergence efficacy (herbicidal activity) (Veronica persica [12]; Dosage 320 g/ha) | post-emergence efficacy PHBPU (Ipomoea purpurea; 320 g/ha) | post-emergence efficacy ECHCG (Echinochloa crus-galli [16]; 80 g/ha) | post-emergence efficacy ECHCG (Echinochloa crus-galli [16]; 320 g/ha) | post-emergence efficacy STEME (Stellaria media [17]; 80 g/ha) | post-emergence efficacy STEME (Stellaria media [17]; 320 g/ha) | post-emergence efficacy ALOMY (Alopecurus myosuroides [20]) | post-emergence efficacy VERPE (Veronica persica [24])
